Measurements from patent publication US5210193A, “Piperazine derivatives” (American Cyanamid Company, priority 1990, dated 1993).
≈ marks a conversion by molar mass, not a printed value. Read-outs that look alike come from different tables or passages of the source.

Key:
Experiment in all cases: in vitro antibacterial MIC, agar plate dilution
Type in all cases: cell-based
[1] = system: Enterobacter cloacae K 84-10; details: Enterobacter cloacae, K8410, 18 h, 35° C., read-out: MIC
How it was run: (§1)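 MIC, mcg/ml: lowest concentration with no visible growth after 18 h incubation at 35° C. Mueller-Hinton agar dilution plates; ~10^4 CFU inoculum via Steers replicating device.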

[2] = system: Enterobacter cloacae MOR 84-30; details: Enterobacter cloacae, MOR8430, 18 h, 35° C., read-out: MIC
How it was run: as §1

[3] = system: Escherichia coli CMC 84-11; details: Escherichia coli, CMC8411, 18 h, 35° C., read-out: MIC
How it was run: as §1

[4] = system: Escherichia coli CMC 84-50; details: Escherichia coli, CMC8450, 18 h, 35° C., read-out: MIC
How it was run: as §1

Escherichia coli LL 311 = details: Escherichia coli, LL311, 18 h, 35° C., read-out: MIC
How it was run: as §1

[5] = system: Escherichia coli MOR 84-20; details: Escherichia coli, MOR8420, 18 h, 35° C., read-out: MIC
How it was run: as §1

[6] = system: Escherichia coli VGH 84-19; details: Escherichia coli, VGH8419, 18 h, 35° C., read-out: MIC
How it was run: as §1

[7] = system: Klebsiella pneumoniae CMC 84-31; details: Klebsiella pneumoniae, CMC8431, 18 h, 35° C., read-out: MIC
How it was run: as §1

[8] = system: Klebsiella pneumoniae IO 83-5; details: Klebsiella pneumoniae, IO835, 18 h, 35° C., read-out: MIC
How it was run: as §1

[9] = system: Klebsiella pneumoniae MOR 84-24; details: Klebsiella pneumoniae, MOR8424, 18 h, 35° C., read-out: MIC
How it was run: as §1

[10] = system: Morganella morganii CMC 84-37; details: Morganella morganii, CMC8437, 18 h, 35° C., read-out: MIC
How it was run: as §1

[11] = system: Morganella morganii CMC 84-38; details: Morganella morganii, CMC8438, 18 h, 35° C., read-out: MIC
How it was run: as §1

[12] = system: Morganella morganii MOR 84-45; details: Morganella morganii, MOR8445, 18 h, 35° C., read-out: MIC
How it was run: as §1

[13] = system: Proteus rettgeri CMC 84-41; details: Providencia rettgeri, CMC8441, 18 h, 35° C., read-out: MIC
How it was run: as §1

[14] = system: Proteus rettgeri IO 83-21; details: Providencia rettgeri, IO8321, 18 h, 35° C., read-out: MIC
How it was run: as §1

[15] = system: Providencia stuarti CMC 83-3; details: Providencia, CMC833, 18 h, 35° C., read-out: MIC
How it was run: as §1

[16] = system: Pseudomonas aeruginosa K 84-16; details: Pseudomonas aeruginosa, K8416, 18 h, 35° C., read-out: MIC
How it was run: as §1

[17] = system: Pseudomonas aeruginosa LL-1244; details: Pseudomonas aeruginosa, LL1244, 18 h, 35° C., read-out: MIC
How it was run: as §1

[18] = system: Pseudomonas aeruginosa VGH 84-3; details: Pseudomonas aeruginosa, VGH843, 18 h, 35° C., read-out: MIC
How it was run: as §1

[19] = system: Serratia marcescens CMC 83-74; details: Serratia marcescens, CMC8374, 18 h, 35° C., read-out: MIC
How it was run: as §1

[20] = system: Serratia marcescens MOR 84-41; details: Serratia marcescens, MOR8441, 18 h, 35° C., read-out: MIC
How it was run: as §1

[21] = system: Serratia marcescens VGH 84-30; details: Serratia marcescens, VGH8430, 18 h, 35° C., read-out: MIC
How it was run: as §1

[22] = system: Staphylococcus aureus ATTC 29213; details: 35° C.
How it was run: as §1

[23] = system: Staphylococcus aureus K 82-26; details: Staphylococcus aureus, K8226, 18 h, 35° C., read-out: MIC
How it was run: as §1

[24] = system: Staphylococcus aureus Smith; details: Staphylococcus aureus, 18 h, 35° C., read-out: MIC
How it was run: as §1

[25] = system: Staphylococcus aureus VGH 84-45; details: Staphylococcus aureus, VGH8445, 18 h, 35° C., read-out: MIC
How it was run: as §1

[26] = system: Staphylococcus aureus VGH 84-47; details: Staphylococcus aureus, VGH8447, 18 h, 35° C., read-out: MIC
How it was run: as §1

[27] = system: Streptococcus faecalis UCI 85-19; details: Enterococcus faecalis, UCI8519, 18 h, 35° C., read-out: MIC
How it was run: as §1

[28] = system: Streptococcus faecalis UCI 85-30; details: Enterococcus faecalis, UCI8530, 18 h, 35° C., read-out: MIC
How it was run: as §1

[29] = system: Streptococcus faecalis VGH 84-65; details: Enterococcus faecalis, VGH8465, 18 h, 35° C., read-out: MIC
How it was run: as §1

[30] = system: Streptococcus faecalis VGH 84-69; details: Enterococcus faecalis, VGH8469, 18 h, 35° C., read-out: MIC
How it was run: as §1

[31] = Staphylococcus aureus, ATTC29213, 18 h, read-out: MIC

| MIC [1] | MIC [2] | MIC [3] | MIC [4] | MIC (Escherichia coli LL 311) | MIC [5] | MIC [6] | MIC [7] | MIC [8] | MIC [9] | MIC [10] | MIC [11] | MIC [12] | MIC [13] | MIC [14] | MIC [15] | MIC [16] | MIC [17] | MIC [18] | MIC [19] | Structure (SMILES) | also measured |
| --- | --- | --- | --- | --- | --- | --- | --- | --- | --- | --- | --- | --- | --- | --- | --- | --- | --- | --- | --- | --- | --- |
| 0.25 mg/L (≈ 0.629 µM) | 4 mg/L (≈ 10.1 µM) | 0.06 mg/L (≈ 0.151 µM) | 0.25 mg/L (≈ 0.629 µM) | 0.12 mg/L (≈ 0.302 µM) | 0.25 mg/L (≈ 0.629 µM) | 0.25 mg/L (≈ 0.629 µM) | 0.25 mg/L (≈ 0.629 µM) | 1 mg/L (≈ 2.52 µM) | 1 mg/L (≈ 2.52 µM) | 1 mg/L (≈ 2.52 µM) | 0.5 mg/L (≈ 1.26 µM) | 0.25 mg/L (≈ 0.629 µM) | 0.5 mg/L (≈ 1.26 µM) | 1 mg/L (≈ 2.52 µM) | > 16 mg/L | > 16 mg/L | 16 mg/L (≈ 40.3 µM) | > 16 mg/L | > 16 mg/L | O=C(O)c1cn(C2CC2)c2cc(N3CCNC(c4cc[nH]n4)C3)c(F)cc2c1=O (stereo not drawn) [Example 121, 1-Cyclopropyl-6-fluoro-1,4-dihydro-4-oxo-7-[3-(1H-pyrazol-3-yl)-1-piperazinyl]-3-quinolinecarboxylic acid] | MIC [20]: 1 mg/L (≈ 2.52 µM); MIC [21]: 32 mg/L (≈ 80.5 µM); MIC ([22]; 18 hours): 2 mg/L (≈ 5.03 µM); MIC [22, 31]: 1 mg/L (≈ 2.52 µM); MIC [23]: 1 mg/L (≈ 2.52 µM); MIC [24]: 0.12 mg/L (≈ 0.302 µM); MIC [25]: 0.5 mg/L (≈ 1.26 µM); MIC [26]: 1 mg/L (≈ 2.52 µM); MIC [27]: 2 mg/L (≈ 5.03 µM); MIC [28]: 2 mg/L (≈ 5.03 µM); MIC [29]: 2 mg/L (≈ 5.03 µM); MIC [30]: 2 mg/L (≈ 5.03 µM) |
| 0.06 mg/L (≈ 0.156 µM) | 2 mg/L (≈ 5.19 µM) | 0.06 mg/L (≈ 0.156 µM) | 0.25 mg/L (≈ 0.649 µM) | 0.06 mg/L (≈ 0.156 µM) | 0.25 mg/L (≈ 0.649 µM) | 0.25 mg/L (≈ 0.649 µM) | 0.25 mg/L (≈ 0.649 µM) | 0.5 mg/L (≈ 1.3 µM) | 0.5 mg/L (≈ 1.3 µM) | 0.25 mg/L (≈ 0.649 µM) | 0.5 mg/L (≈ 1.3 µM) | 0.5 mg/L (≈ 1.3 µM) | 0.25 mg/L (≈ 0.649 µM) | 1 mg/L (≈ 2.59 µM) | > 16 mg/L | 16 mg/L (≈ 41.5 µM) | 16 mg/L (≈ 41.5 µM) | > 16 mg/L | > 16 mg/L | CN1CCN(c2cc3c(cc2F)c(=O)c(C(=O)O)cn3C2CC2)CC1C1CC1 (stereo not drawn) [Example 125, 1-Cyclopropyl-7-(3-cyclopropyl-4-methyl-1-piperazinyl) -6-fluoro-1,4-dihydro-4-oxo-3-quinolinecarboxylic acid] | MIC [20]: 1 mg/L (≈ 2.59 µM); MIC [21]: 8 mg/L (≈ 20.8 µM); MIC ([22]; 18 hours): 0.5 mg/L (≈ 1.3 µM); MIC [22, 31]: 0.25 mg/L (≈ 0.649 µM); MIC [23]: 4 mg/L (≈ 10.4 µM); MIC [24]: 0.12 mg/L (≈ 0.311 µM); MIC [25]: 0.12 mg/L (≈ 0.311 µM); MIC [26]: 0.5 mg/L (≈ 1.3 µM); MIC [27]: 4 mg/L (≈ 10.4 µM); MIC [28]: 8 mg/L (≈ 20.8 µM); MIC [29]: 4 mg/L (≈ 10.4 µM); MIC [30]: 4 mg/L (≈ 10.4 µM) |
| 1 mg/L (≈ 2.52 µM) | 16 mg/L (≈ 40.4 µM) | 0.25 mg/L (≈ 0.631 µM) | 2 mg/L (≈ 5.05 µM) | 0.25 mg/L (≈ 0.631 µM) | 1 mg/L (≈ 2.52 µM) | 1 mg/L (≈ 2.52 µM) | 4 mg/L (≈ 10.1 µM) | 2 mg/L (≈ 5.05 µM) | 4 mg/L (≈ 10.1 µM) | 0.25 mg/L (≈ 0.631 µM) | 1 mg/L (≈ 2.52 µM) | 1 mg/L (≈ 2.52 µM) | 0.25 mg/L (≈ 0.631 µM) | 4 mg/L (≈ 10.1 µM) | > 16 mg/L | > 16 mg/L | 32 mg/L (≈ 80.7 µM) | > 16 mg/L | > 16 mg/L | CCn1cc(C(=O)O)c(=O)c2cc(F)c(N3CCNC(c4cccnc4)C3)cc21 (stereo not drawn) [Example 122] | MIC [20]: 4 mg/L (≈ 10.1 µM); MIC [21]: 32 mg/L (≈ 80.7 µM); MIC ([22]; 18 hours): 1 mg/L (≈ 2.52 µM); MIC [22, 31]: 0.5 mg/L (≈ 1.26 µM); MIC [23]: 1 mg/L (≈ 2.52 µM); MIC [24]: 0.12 mg/L (≈ 0.303 µM); MIC [25]: 0.25 mg/L (≈ 0.631 µM); MIC [26]: 1 mg/L (≈ 2.52 µM); MIC [27]: 4 mg/L (≈ 10.1 µM); MIC [28]: 8 mg/L (≈ 20.2 µM); MIC [29]: 8 mg/L (≈ 20.2 µM); MIC [30]: 8 mg/L (≈ 20.2 µM) |
